We go through one compound from patent publication EP0128333B1, “Agent for inactivating the mutagenicity of coffee and method therefor” (SUNTORY LIMITED, priority 1983, dated 1984).

The test system of data set [1] is Salmonella typhimurium strain TA 100. Briefly: Mutagenicity / antimutagenic effect, preincubation Salmonella (Ames) test. Particulars: Salmonella typhimurium strain TA 100 (histidine-requiring), 48 h, pH 7.4.
Method: • I) Measuring mutagenicity and the antimutagenic effect • (i) Method: • The preincubation method described in Sugimura & Nagao; Chemical Mutagens, Vol. 6, p. 41, 1981 was used. • (ii) Microorganism: • Histidine-requiring Salmonella typhimurium strain TA 100 (hereunder S. TA 100) was used. • (iii) Preparation of samples: • (a) Instant coffee: • Instant coffee powder was dissolved in distilled water. Predetermined amounts of catalase were also dissolved in distilled water, and 50 µl of each solution was mixed with an equal amount of the aqueous coffee solution. • (b) Regular coffee: • Roasted and ground coffee beans (20 g) were extracted with hot distilled water (250 ml), and the extract was filtered through coffee filter paper No. 12 manufactured by Kalita Co., Ltd. The extract was freeze-dried, and after measuring the weight of the dry product, it was dissolved in distilled water. Predetermined amounts of catalase were also dissolved in distilled water, and 50 pl of each solution was mixed with an equal amount of the aqueous solution of coffee concentrate. • (c) Catalase: • A pure isolate from calf liver as manufactured by P-L Biochemicals, Inc. was used. […] After incubation at 37°C for 48 hours, the number of colonies forming on the plate was counted as revertants.
A further data set concerns human cells. Conditions: cited from earlier work.
For the next data set, the system named is Neurospora crassa. Particulars: cited from earlier work.
The next data set concerns mouse deodenum. Particulars: 0.1 % of hydrogen peroxide; cited from earlier work.

For `OO` [hydrogen peroxide], the “mutagenicity to S. TA 100” value in data set [1] is given as 160 revertants/108 survivors/pmole. For the same compound, in the data set with human cells, the “clastogenic to human cells” value is listed as “clastogenic”. In addition, the “mutagenic to Neurospora crassa” value in the data set with Neurospora crassa was “mutagenic”. In addition, the carcinogenicity result in the data set on mouse deodenum is listed as “cause malignant tumors”.
